Data on 18 compounds can be found in ChEMBL document CHEMBL2034840, “Automated generation of turn mimetics: proof of concept study for the MC4 receptor” (Bioorg Med Chem, 2012).

In this experiment the target is Melanocortin receptor 4 (Homo sapiens, UniProt P32245). Kind of experiment: Displacement of [125I]NDPMSH from human MC4 receptor expressed in HEK293 cells after 2 hrs by liquid scintillation counting. It counts as cell-based. For orientation: In a radioligand displacement assay an active substance lowers the binding of a labelled ligand.
Sequence of Melanocortin receptor 4 (P32245 whole entry): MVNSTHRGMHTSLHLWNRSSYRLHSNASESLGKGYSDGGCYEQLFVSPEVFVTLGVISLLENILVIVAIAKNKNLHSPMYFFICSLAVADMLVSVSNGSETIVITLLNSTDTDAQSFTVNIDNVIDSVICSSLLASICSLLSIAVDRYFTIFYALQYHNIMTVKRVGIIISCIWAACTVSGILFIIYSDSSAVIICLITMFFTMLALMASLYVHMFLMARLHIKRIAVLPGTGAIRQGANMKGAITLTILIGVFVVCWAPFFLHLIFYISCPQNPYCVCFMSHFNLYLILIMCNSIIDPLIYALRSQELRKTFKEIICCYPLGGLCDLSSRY

Regarding `O=C(NCCc1ccccc1)[C@H]1CNC[C@H]1C(=O)NC1CCN(Cc2ccccc2)C1` (stereo in doubt; 3a), the Ki (in general, the dissociation constant of the complex between target and ligand, obtained from inhibition or displacement) was found to be 5000 nM. Same read-out and setting: the same measure for `O=C(NCCc1cccc(Cl)c1)[C@H]1CN(CC2CC2)C[C@H]1C(=O)NC1CCN(Cc2ccccc2)C1` (mixture of isomers): 670 nM; for `NCCNC(=O)[C@@H]1CNC[C@H]1C(=O)NC(=O)c1ccccc1`: 5300 nM; for `O=C(NCCc1ccccc1)[C@H]1CN(CC2CC2)C[C@H]1C(=O)NC1CCN(Cc2ccccc2)C1` (mixture of isomers): 2600 nM. For the setting “hek293”, `O=C(NCCc1ccccc1)[C@H]1CNC[C@H]1C(=O)NC1CCN(Cc2ccccc2)C1` (mixture of isomers) registered an inhibition constant (Ki) of 5000 nM. The compound `O=C(NCc1ccccc1)[C@@H]1CNC[C@H]1C(=O)NCc1ccccc1` gave a Ki of 900 nM.

Compound `O=C(NCCc1ccccc1)[C@@H]1CNC[C@H]1C(=O)NCc1ccccc1` gave an inhibition constant (Ki) of 1000 nM. This Ki and that of the compound before are within 1.5-fold of each other. Turning to `O=C(CNC(=O)[C@H]1CNC[C@H]1C(=O)NCCc1c[nH]c2ccccc12)c1ccccc1`, the affinity corresponds to a Ki of 5500 nM. The compound `O=C(NCc1cccc(Cl)c1)[C@H]1CN(CC2CC2)C[C@H]1C(=O)NC1CCN(Cc2ccccc2)C1` (mixture of isomers) had an inhibition constant (Ki) of 400 nM. In the case of `O=C(NCc1ccccc1)[C@H]1CNC[C@H]1C(=O)NCCc1c[nH]c2ccccc12`, the Ki amounted to 5500 nM. On to `O=C(NCCc1ccccc1)[C@H]1CN(CCO)C[C@H]1C(=O)NC1CCN(Cc2ccccc2)C1` (mixture of isomers), for which affinity was put at a Ki of 6200 nM. As to `O=C(NCCc1ccccc1)[C@H]1CN(CCOc2ccccc2)C[C@H]1C(=O)NC1CCN(Cc2ccccc2)C1` (mixture of isomers), the affinity, expressed as Ki, was 1000 nM. The same measure, in the same setting: under `O=C(NCCc1cccc(F)c1)[C@H]1CN(CC2CC2)C[C@H]1C(=O)NC1CCN(Cc2ccccc2)C1` (mixture of isomers) stands 1800 nM. The same measure, in the same setting: the same measure for `O=C(NCCCc1ccccc1)[C@H]1CNC[C@H]1C(=O)NCc1ccc(C(F)(F)F)cc1`: 5800 nM; for `O=C(NCc1ccc(Cl)cc1Cl)[C@H]1CN(CC2CC2)C[C@H]1C(=O)NC1CCN(Cc2ccccc2)C1` (mixture of isomers): 70 nM; for `O=C(NCCc1ccc(Cl)cc1Cl)[C@H]1CN(CC2CC2)C[C@H]1C(=O)NC1CCN(Cc2ccccc2)C1` (mixture of isomers): 160 nM. Still for that read-out and setting: under `O=C(NCc1ccccc1)[C@@H]1CNC[C@H]1C(=O)Nc1cccc(-c2ccccc2)c1` stands 6600 nM; under `O=C(NCCc1ccc(Cl)cc1)[C@H]1CN(CC2CC2)C[C@H]1C(=O)NC1CCN(Cc2ccccc2)C1` (mixture of isomers), 380 nM.
